Assay results as given in the Kinase Knowledgebase extract (Sharma et al. 2016).

molecular target: EGFR (Human), P00533 [T790M/L858R]; settings: nci-h1975
Sequence (P00533 whole entry T790M/L858R, looked up): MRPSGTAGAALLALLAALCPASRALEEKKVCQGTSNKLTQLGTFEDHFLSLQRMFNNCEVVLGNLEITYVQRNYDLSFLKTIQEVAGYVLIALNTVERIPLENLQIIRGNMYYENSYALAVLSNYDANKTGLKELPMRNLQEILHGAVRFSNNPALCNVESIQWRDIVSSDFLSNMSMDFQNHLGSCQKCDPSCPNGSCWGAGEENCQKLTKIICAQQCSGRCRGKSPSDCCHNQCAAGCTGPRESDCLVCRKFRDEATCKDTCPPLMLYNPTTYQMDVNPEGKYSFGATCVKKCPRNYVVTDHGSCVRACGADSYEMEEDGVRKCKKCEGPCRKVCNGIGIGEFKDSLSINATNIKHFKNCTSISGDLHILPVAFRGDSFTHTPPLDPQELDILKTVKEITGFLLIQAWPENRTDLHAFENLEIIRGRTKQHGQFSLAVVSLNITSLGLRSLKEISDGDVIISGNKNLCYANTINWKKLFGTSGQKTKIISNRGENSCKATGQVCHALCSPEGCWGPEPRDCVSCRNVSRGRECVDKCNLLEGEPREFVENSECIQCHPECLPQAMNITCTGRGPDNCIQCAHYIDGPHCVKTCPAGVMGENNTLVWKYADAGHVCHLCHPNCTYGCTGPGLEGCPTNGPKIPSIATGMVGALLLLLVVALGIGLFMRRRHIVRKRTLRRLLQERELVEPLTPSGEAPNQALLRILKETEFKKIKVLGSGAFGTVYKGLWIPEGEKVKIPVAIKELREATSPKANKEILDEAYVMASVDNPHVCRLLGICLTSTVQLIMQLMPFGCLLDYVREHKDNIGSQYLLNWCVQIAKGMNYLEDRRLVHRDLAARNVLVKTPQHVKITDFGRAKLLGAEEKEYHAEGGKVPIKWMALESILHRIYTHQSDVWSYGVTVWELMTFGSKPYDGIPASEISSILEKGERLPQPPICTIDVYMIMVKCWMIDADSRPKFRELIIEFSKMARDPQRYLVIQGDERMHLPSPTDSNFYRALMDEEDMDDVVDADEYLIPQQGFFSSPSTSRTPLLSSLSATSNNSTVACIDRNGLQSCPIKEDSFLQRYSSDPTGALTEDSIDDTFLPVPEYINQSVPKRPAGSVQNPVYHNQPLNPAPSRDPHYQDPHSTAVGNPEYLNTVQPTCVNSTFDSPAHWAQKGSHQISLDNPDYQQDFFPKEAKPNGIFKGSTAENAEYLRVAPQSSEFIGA

Row | SMILES | EC50 [nM]
1 | CC(C)n1nc(NC(C)(C)C#N)c2cnc(Nc3ccnc(N4CC[C@H](O)[C@H](F)C4)n3)cc21 | 8270
2 | CC(C)n1nc(N2CC(C(=O)NC3CC(O)C3)C2)c2cnc(Nc3ccnc(-c4cnn(S(=O)(=O)C5CC5)c4)n3)cc21 (stereo not given) | > 10000
3 | CC(C)n1ncc2cnc(Nc3ccnc(-c4cnn(CC5CC5)c4)n3)cc21 | 498
4 | CC(C)n1nc(N2CC(C)(O)C2)c2cnc(Nc3ccnc(-c4cnn(S(=O)(=O)C5CC5)c4)n3)cc21 | 289
5 | CCC(C)n1nc(N2CC[C@@H](C(N)=O)C2)c2cnc(Nc3ccnc(N4CCC(C)(O)CC4)n3)cc21 (stereo not given in full) | 7170
6 | CC[C@H](C)n1nc(N2CC3(COC3)C2)c2cnc(Nc3ccnc(N4CC[C@@H](O)[C@@H](F)C4)n3)cc21 | 348
7 | CC(C)n1nc(NC(=O)C(C)(C)O)c2cnc(Nc3ccnc(-c4cnn(S(=O)(=O)C5CC5)c4)n3)cc21 | 2080
8 | CC(C)n1nc(N2CC[C@@H](O)C2)c2cnc(Nc3ccnc(N4CC[C@@H](O)[C@@H](F)C4)n3)cc21 | 404
9 | CCC(C)n1nc(N2CC[C@@H](O)C2)c2cnc(Nc3ccnc(N4CCC(CC#N)(OC)CC4)n3)cc21 (stereo not given in full) | 1470
10 | CNC(=O)C1CN(c2nn(C(C)C)c3cc(Nc4ccnc(-c5cnn(S(=O)(=O)C6CC6)c5)n4)ncc23)C1 | 650
11 | CC(C)n1nc(N[C@@H]2CCOC2)c2cnc(Nc3ccnc(-c4cnn(S(=O)(=O)C5CC5)c4)n3)cc21 | 775
12 | CC(C)n1nc(N2CCC(C)(C(N)=O)C2)c2cnc(Nc3ccnc(N4CCC(C)(O)CC4)n3)cc21 (stereo not given) | 2860
13 | CC(C)n1nc(N2CCCC2=O)c2cnc(Nc3ccnc(-c4cnn(S(=O)(=O)C5CC5)c4)n3)cc21 | 232
14 | CC(C)n1nc(NCCO)c2cnc(Nc3ccnc(-c4cnn(S(=O)(=O)C5CC5)c4)n3)cc21 | 877
15 | CC(C)Oc1nn(C(C)C)c2cc(Nc3ccnc(-c4cnn(S(=O)(=O)C5CC5)c4)n3)ncc12 | 3590
16 | CC(C)n1nc(NC2CCOCC2)c2cnc(Nc3ccnc(-c4cnn(S(=O)(=O)C5CC5)c4)n3)cc21 | 1110
17 | CCC(C)n1nc(N2CC[C@H](C(N)=O)C2)c2cnc(Nc3ccnc(N4CCC(C)(O)CC4)n3)cc21 (stereo not given in full) | 2200
18 | CC(C)n1nc(N2CC(C(N)=O)C2)c2cnc(Nc3ccnc(-c4cnn(S(=O)(=O)C5CC5)c4)n3)cc21 | 938
19 | CC(C)n1nc(NCCC2OCC(N)CO2)c2cnc(Nc3ccnc(N4CCC(C)(O)CC4)n3)cc21 (stereo not given) | > 10000
20 | CC(C)n1nc(N2CCOCC2)c2cnc(Nc3ccnc(NCC(C)(C)S(C)(=O)=O)n3)cc21 | 1260

Row | SMILES | EC50 [nM]
21 | CC[C@@H](C)n1nc(N2CC[C@@H](O)C2)c2cnc(Nc3ccnc(N4CCC5(CC4)CNC(=O)CO5)n3)cc21 | 9130
22 | CCC(C)n1nc(N2C[C@@H](CO)NC2=O)c2cnc(Nc3ccnc(-c4cnn(S(=O)(=O)C5CC5)c4)n3)cc21 (stereo not given in full) | 5590
23 | CC(C)n1nc(N2CC(C(=O)NCC(F)(F)F)C2)c2cnc(Nc3ccnc(-c4cnn(S(=O)(=O)C5CC5)c4)n3)cc21 | 193
24 | CC[C@H](C)n1nc(N2CC[C@@H](O)C2)c2cnc(Nc3ccnc(N4CC[C@](C)(O)[C@H](F)C4)n3)cc21 | 521
25 | CC(C)n1nc(N2CC(C(=O)N(C)C)C2)c2cnc(Nc3ccnc(-c4cnn(S(=O)(=O)C5CC5)c4)n3)cc21 | 159
26 | CC(C)n1nc(N2CC(C(=O)N3CC4CCC(C3)O4)C2)c2cnc(Nc3ccnc(-c4cnn(S(=O)(=O)C5CC5)c4)n3)cc21 | 283
27 | CCC(C)n1nc(N2CC3(COC3)C2)c2cnc(Nc3ccnc(-c4cnn(S(=O)(=O)C5CC5)c4)n3)cc21 (stereo not given) | 216
28 | CC(C)n1nc(N2CCC3(CNC(=O)C3)C2)c2cnc(Nc3ccnc(-c4cnn(S(=O)(=O)C5CC5)c4)n3)cc21 (stereo not given) | 1790
29 | CC(C)n1nc(N2CC3(COC3)C2)c2cnc(Nc3ccnc(-c4cnn(S(=O)(=O)C5CC5)c4)n3)cc21 | 421
30 | CC(C)Nc1nn(C(C)C)c2cc(Nc3ccnc(-c4cnn(S(=O)(=O)C5CC5)c4)n3)ncc12 | 951
31 | CC(C)n1nc(N2CC3(C2)C[S+]([O-])C3)c2cnc(Nc3ccnc(N4CCC(C)(O)CC4)n3)cc21 | 3910
32 | CC(C)n1nc(N2CC(O)C(F)(F)C2)c2cnc(Nc3ccnc(N4CCC(C)(O)CC4)n3)cc21 (stereo not given) | 1330
33 | CC(C)n1nc(N2CC(C(=O)N3CC[C@@H](O)C3)C2)c2cnc(Nc3ccnc(-c4cnn(S(=O)(=O)C5CC5)c4)n3)cc21 | 2520
34 | CCS(=O)(=O)n1cc(-c2nccc(Nc3cc4c(cn3)c(N3CC(C(=O)N(C)C)C3)nn4C(C)C)n2)cn1 | 236
35 | CC(C)n1nc(N2CCC3(CCNC3=O)C2)c2cnc(Nc3ccnc(-c4cnn(S(=O)(=O)C5CC5)c4)n3)cc21 (stereo not given) | 740
36 | CCC(C)n1nc(N2CCNC2=O)c2cnc(Nc3ccnc(-c4cnn(S(=O)(=O)C5CC5)c4)n3)cc21 (stereo not given) | 138
37 | CC[C@@H](C)n1nc(N2CC3(COC3)C2)c2cnc(Nc3ccnc(OCC(C)(C)S(C)(=O)=O)n3)cc21 | 1240
38 | CC[C@@H](C)n1nc(N2CC(C(C)(C)O)C2)c2cnc(Nc3ccnc(N4CC[C@@H](O)[C@@H](F)C4)n3)cc21 | 334
39 | CCC(C)n1nc(N2CCS(=N)(=O)CC2)c2cnc(Nc3ccnc(N4CCC(C)(O)CC4)n3)cc21 (stereo not given) | 9980
40 | CC(C)n1nc(N2CCS(=O)(=O)CC2)c2cnc(Nc3ccnc(-c4cnn(S(=O)(=O)C5CC5)c4)n3)cc21 | 2020
